Patent US8962596B2 (Array BioPharma Inc., priority 2010, dated 2015)
Counter-ions that a name gives are not always drawn.

How the values were obtained:
Type in all cases: biochemical
JAK3 = biological target: T1, JAK3 (Homo sapiens, UniProt P52333); test: JAK3 Inhibition Assay (Omnia kinase fluorescence peptide substrate assay); conditions: averaged IC50 ranges; assay of Example D; 10 μM (Km app) or 1 mM ATP, 2.5 nM JAK3
T1 construct: purchased Invitrogen Corporation, Carlsbad, Calif; PV4080
T1 sequence (P52333 1-1124): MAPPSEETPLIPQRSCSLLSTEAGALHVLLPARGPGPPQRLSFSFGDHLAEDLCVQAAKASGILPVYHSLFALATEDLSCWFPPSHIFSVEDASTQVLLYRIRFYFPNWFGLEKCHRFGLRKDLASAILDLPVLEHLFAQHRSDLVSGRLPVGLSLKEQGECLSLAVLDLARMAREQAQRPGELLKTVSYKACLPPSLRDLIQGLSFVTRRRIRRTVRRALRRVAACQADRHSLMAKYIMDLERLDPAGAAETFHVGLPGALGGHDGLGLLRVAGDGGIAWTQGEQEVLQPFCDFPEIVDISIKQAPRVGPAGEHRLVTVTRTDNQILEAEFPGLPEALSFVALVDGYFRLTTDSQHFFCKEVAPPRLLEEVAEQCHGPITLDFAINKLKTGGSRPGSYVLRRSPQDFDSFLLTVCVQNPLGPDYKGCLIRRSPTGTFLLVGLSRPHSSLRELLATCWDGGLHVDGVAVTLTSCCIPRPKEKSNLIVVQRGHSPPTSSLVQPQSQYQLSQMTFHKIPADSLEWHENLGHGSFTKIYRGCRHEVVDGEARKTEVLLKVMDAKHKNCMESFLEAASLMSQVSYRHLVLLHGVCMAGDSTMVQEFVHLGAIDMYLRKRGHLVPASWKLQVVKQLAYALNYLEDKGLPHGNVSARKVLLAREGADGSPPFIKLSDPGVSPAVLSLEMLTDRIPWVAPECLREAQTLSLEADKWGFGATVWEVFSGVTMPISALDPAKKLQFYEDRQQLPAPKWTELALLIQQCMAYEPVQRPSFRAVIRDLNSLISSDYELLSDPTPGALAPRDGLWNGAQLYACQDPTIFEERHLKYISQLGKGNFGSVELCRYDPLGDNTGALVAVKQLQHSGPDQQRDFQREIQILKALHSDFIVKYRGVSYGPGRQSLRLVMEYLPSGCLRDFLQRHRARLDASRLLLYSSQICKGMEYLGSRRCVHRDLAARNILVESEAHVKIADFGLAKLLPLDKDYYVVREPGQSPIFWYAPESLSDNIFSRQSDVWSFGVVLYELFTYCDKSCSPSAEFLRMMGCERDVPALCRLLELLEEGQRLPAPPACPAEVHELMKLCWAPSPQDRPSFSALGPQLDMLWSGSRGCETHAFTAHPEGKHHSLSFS
From the text: (§1) The assays described in Examples A, B, C and D for the determination of Tyk2, JAK1, JAK2 and JAK3 kinase activity, respectively, utilized the Omnia® Kinase fluorescence peptide substrate-based technology (Invitrogen). The specific components of the assay mixture are described in Examples A, B, C and D. In these assays, Mg^2+ is chelated upon phosphorylation of the Omnia peptide by the kinase to form a bridge between the chelation-enhanced fluorophore Sox and the phosphate, resulting in an increase in fluorescence emission at 485 nm when excited at […]. The reactions were therefore read at excitation 360 nm and emission was measured at 485 nm every 50 seconds for 45 minutes using a PerkinElmer EnVision Multilabel Plate Reader.
(§2) The final buffer conditions for Tyk2, JAK1, JAK2, and JAK3 assays were as follows: 25 mM HEPES, pH 7.4, 10 mM MgCl2, 0.01% Triton X-100 and 1 mM DTT.
(§3) Compounds were prepared at 50× the final concentration in DMSO by conducting 3-fold serial dilutions from a 500-μM intermediate dilution to give a 10-point dosing curve having a high dose of 10 μM. Two-μL aliquots of these were transferred to a fresh plate for a ten-fold intermediate dilution with assay buffer. Five-μL aliquots of the diluted compounds were then transferred to 20-μL of assay mixtures described in Examples A, B, C and D for a final concentration of DMSO of 2%. A standard or reference compound was typically included on each assay plate to validate that plate. For each plate, percent of control (POC) values were calculated for each well according to the following equation:
(§4) where Xmax=Average Uninhibited Controls • Xmin=Average Background IC50's were estimated from the POC's using a standard 4-parameter logistic model:
(§5) where • A=Minimum Y (Bottom Asymptote) • B=Maximum Y (Top Asymptote) • C=EC50 • D=Slope Factor • X=Compound Concentration (nM) • Y=POC
(§6) The IC50 is defined as the concentration of inhibitor at which the POC equals 50 for the fitted curve.
(§7) Compounds of Formula I were screened for their ability to inhibit JAK3 using the general enzyme inhibition assay method, in which the assay mixture contained 10 μM (Km app) or 1 mM ATP, 10 μM Omnia® Y7 peptide (Catalog #IVGN KNZ3071C, Invitrogen Corporation, Carlsbad, Calif.) and 2.5 nM JAK3 in a total volume of 20 μL. JAK3 was purchased from Invitrogen Corporation, Carlsbad, Calif. (catalog #IVGN PV4080).

Human Tyk2 kinase domain = biological target: T2, Human Tyk2 kinase domain (Homo sapiens, UniProt P29597); test: Tyk2 Inhibition Assay (Omnia kinase fluorescence peptide substrate assay); conditions: averaged IC50 ranges; assay of Example A; 10 μM (Km app) or 1 mM ATP, 2 nM Tyk2
T2 construct: comprising amino acids 886 to 1187 with 10 additional histidine residues; 10xHis (histidine tag) (C, cleaved yes); made in house
T2 sequence (P29597 886-1187): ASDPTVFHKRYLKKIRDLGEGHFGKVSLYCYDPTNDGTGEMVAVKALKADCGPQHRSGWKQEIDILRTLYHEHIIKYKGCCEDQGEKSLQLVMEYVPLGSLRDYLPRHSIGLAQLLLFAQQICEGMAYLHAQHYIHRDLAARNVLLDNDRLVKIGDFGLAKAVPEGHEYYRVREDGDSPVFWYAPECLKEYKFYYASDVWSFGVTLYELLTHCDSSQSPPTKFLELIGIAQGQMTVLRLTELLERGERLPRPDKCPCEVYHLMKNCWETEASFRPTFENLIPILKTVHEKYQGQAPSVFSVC
From the text: as §1, §2, §3, §4, §5, §6
Compounds of Formula I were screened for their ability to inhibit Tyk2 using the general enzyme inhibition assay method, in which the assay mixture contained 10 μM (Km app) or 1 mM ATP, 8 μM Omnia® Y12 peptide (Catalog #IVGN KPZ3121C; Invitrogen Corporation, Carlsbad, Calif.) and 2 nM Tyk2 in a total volume of 20 μL. Human Tyk2 kinase domain, comprising amino acids 886 to 1187 with 10 additional histidine residues (histidine tag) on the carboxy terminus, was expressed and purified from bacculovirus in-house at Array BioPharma Inc. (Boulder, Colo.). The histidine tag was cleaved after purification using standard conditions.

JAK1 = biological target: T3, JAK1 (Homo sapiens, UniProt P23458); test: JAK1 Inhibition Assay (Omnia kinase fluorescence peptide substrate assay); conditions: averaged IC50 ranges; assay of Example B; 40 μM (Km app) or 1 mM ATP, 15 nM JAK1
T3 construct: purchased Invitrogen Corporation, Carlsbad, Calif; PV4775
From the text: as §1, §2, §3, §4, §5, §6
Compounds of Formula I were screened for their ability to inhibit JAK1 using the general enzyme inhibition assay method, in which the assay mixture contained 40 μM (Km app) or 1 mM ATP, 8 μM Omnia® Y12 peptide (Catalog #IVGN KPZ3121C; Invitrogen Corporation, Carlsbad, Calif.) and 15 nM JAK1 in a total volume of 20 μL. JAK1 was purchased from Invitrogen Corporation, Carlsbad, Calif. (catalog #IVGN PV4775).

JAK2 = biological target: T4, JAK2 (Homo sapiens, UniProt O60674); test: JAK2 Inhibition Assay (Omnia kinase fluorescence peptide substrate assay); conditions: averaged IC50 ranges; assay of Example C; 25 μM (Km app) or 1 mM ATP, 5 nM JAK2
T4 construct: purchased Invitrogen Corporation, Carlsbad, Calif; PV4288
From the text: as §1, §2, §3, §4, §5, §6
as §7, with “inhibit JAK2” for “inhibit JAK3”, “contained 25” for “contained 10”, “and 5” for “and 2.5”, “nM JAK2” for “nM JAK3”, “μL. JAK2” for “μL. JAK3”, “#IVGN PV4288).” for “#IVGN PV4080).”

T3 sequence (P23458 whole entry): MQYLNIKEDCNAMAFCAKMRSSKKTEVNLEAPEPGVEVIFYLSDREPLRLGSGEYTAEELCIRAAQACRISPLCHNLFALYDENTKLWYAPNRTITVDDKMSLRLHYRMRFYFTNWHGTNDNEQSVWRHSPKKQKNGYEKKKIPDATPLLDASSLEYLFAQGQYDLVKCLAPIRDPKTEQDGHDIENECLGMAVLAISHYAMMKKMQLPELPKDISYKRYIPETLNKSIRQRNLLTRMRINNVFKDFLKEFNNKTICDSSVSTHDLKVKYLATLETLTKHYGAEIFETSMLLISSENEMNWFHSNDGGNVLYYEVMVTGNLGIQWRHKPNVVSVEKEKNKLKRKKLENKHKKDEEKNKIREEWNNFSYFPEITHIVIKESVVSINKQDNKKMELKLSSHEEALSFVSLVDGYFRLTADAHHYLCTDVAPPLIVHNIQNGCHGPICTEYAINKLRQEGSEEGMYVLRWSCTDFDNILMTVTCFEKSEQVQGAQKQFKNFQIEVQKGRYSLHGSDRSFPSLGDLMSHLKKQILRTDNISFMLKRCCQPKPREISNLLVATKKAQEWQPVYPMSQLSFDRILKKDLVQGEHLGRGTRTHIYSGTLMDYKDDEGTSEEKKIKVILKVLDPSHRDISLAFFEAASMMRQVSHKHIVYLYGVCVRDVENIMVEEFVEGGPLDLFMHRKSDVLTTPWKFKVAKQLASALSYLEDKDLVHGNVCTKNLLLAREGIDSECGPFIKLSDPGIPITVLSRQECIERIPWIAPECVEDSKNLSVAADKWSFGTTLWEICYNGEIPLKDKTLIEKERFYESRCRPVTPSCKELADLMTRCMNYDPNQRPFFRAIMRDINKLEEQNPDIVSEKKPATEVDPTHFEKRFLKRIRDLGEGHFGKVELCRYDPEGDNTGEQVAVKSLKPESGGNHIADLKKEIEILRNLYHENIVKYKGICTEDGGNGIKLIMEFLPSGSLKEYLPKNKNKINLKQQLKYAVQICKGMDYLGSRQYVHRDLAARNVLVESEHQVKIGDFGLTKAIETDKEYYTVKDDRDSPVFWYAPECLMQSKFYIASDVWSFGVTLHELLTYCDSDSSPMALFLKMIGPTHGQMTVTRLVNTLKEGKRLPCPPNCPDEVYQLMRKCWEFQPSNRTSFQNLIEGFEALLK
T4 sequence (O60674 whole entry): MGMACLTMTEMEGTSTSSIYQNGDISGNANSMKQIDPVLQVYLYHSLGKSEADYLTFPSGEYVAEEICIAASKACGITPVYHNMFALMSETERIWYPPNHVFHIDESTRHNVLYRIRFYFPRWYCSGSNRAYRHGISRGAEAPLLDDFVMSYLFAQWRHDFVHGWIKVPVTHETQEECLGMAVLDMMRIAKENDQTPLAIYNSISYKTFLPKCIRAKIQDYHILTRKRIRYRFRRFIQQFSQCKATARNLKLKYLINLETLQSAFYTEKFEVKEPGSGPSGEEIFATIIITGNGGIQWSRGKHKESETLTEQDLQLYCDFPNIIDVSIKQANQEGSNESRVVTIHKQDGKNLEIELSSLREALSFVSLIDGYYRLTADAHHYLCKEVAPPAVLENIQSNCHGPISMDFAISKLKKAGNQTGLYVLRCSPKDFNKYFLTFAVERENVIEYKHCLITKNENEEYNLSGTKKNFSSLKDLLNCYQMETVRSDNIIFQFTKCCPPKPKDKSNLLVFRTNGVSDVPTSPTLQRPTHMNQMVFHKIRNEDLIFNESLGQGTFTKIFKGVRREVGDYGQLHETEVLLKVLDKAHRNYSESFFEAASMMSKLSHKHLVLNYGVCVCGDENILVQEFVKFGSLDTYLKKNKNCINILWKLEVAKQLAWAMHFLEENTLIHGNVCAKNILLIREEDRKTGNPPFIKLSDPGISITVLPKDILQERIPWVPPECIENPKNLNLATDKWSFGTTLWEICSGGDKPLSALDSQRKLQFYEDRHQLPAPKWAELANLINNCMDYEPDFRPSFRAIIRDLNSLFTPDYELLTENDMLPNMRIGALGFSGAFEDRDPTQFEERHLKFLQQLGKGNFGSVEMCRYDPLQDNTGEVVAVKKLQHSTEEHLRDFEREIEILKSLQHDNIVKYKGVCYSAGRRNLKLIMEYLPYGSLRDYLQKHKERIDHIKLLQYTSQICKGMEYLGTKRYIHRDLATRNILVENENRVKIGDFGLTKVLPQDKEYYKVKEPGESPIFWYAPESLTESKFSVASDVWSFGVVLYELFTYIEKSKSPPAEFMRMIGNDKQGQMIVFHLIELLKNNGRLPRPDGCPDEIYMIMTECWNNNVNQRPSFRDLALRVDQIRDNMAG

Row | IC50 (JAK3) | IC50 (Human Tyk2 kinase domain) | IC50 (JAK1) | IC50 (JAK2) | Compound
1 | > 1000 nM | 100 to 1000 nM | > 1000 nM | 100 to 1000 nM | Cn1cc(-c2cc3nccn3c(-c3ccn(C4(CC#N)CNC4)n3)n2)cn1 [Example 130, 2-(3-(3-(7-(1-Methyl-1H-pyrazol-4-yl)imidazo[1,2-c]pyrimidin-5-yl)-1H-pyrazol-1-yl)azetidin-3-yl)acetonitrile hydrochloride]
2 | > 1000 nM | 10 to 100 nM | > 1000 nM | > 1000 nM | COc1ncc(-c2cc3nccn3c(-c3cnn(C4(CC#N)CN(S(=O)(=O)C(F)(F)F)C4)c3)n2)cn1 [Example 142, 2-(3-(4-(7-(2-methoxypyrimidin-5-yl)imidazo[1,2-c]pyrimidin-5-yl)-1H-pyrazol-1-yl)-1-(trifluoromethylsulfonyl)azetidin-3-yl)acetonitrile]
3 | > 1000 nM | < 10 nM | 100 to 1000 nM | 10 to 100 nM | Cn1cc(-c2cc3nccn3c(-c3ccn(C4(CC#N)CN(CC(F)(F)F)C4)c3)n2)cn1 [Example 128, 2-(3-(3-(7-(1-Methyl-1H-pyrazol-4-yl)imidazo[1,2-c]pyrimidin-5-yl)-1H-pyrrol-1-yl)-1-(2,2,2-trifluoroethyl)azetidin-3-yl)acetonitrile]
4 | > 1000 nM | 100 to 1000 nM | > 1000 nM | > 1000 nM | Cn1cc(-c2cc3nccn3c(-c3ccn(C4(CC#N)CN(C(=O)OC(C)(C)C)C4)n3)n2)cn1 [Example 129, Tert-butyl 3-(cyanomethyl)-3-(3-(7-(1-methyl-1H-pyrazol-4-yl)imidazo[1,2-c]pyrimidin-5-yl)-1H-pyrazol-1-yl)azetidine-1-carboxylate]

Continued, molecule first:

Row | Compound | IC50 (JAK3) | IC50 (Human Tyk2 kinase domain) | IC50 (JAK1) | IC50 (JAK2)
5 | CN1CCN(CCn2cc(-c3cc4nccn4c(-c4cnn(C(CC#N)C5CC5)c4)n3)cn2)CC1 (centres unmarked) [Example 44, 3-cyclopropyl-3-(4-(7-(1-(2-(4-methylpiperazin-1-yl)ethyl)-1H-pyrazol-4-yl)imidazo[1,2-c]pyrimidin-5-yl)-1H-pyrazol-1-yl)propanenitrile] | 100 to 1000 nM | 10 to 100 nM | 100 to 1000 nM | 10 to 100 nM
6 | CN1CCN(c2ccc(-c3cc4nccn4c(-c4cnn(C(CC#N)C5CC5)c4)n3)cn2)CC1 (centres unmarked) [Example 51, 3-cyclopropyl-3-(4-(7-(6-(4-methylpiperazin-1-yl)pyridin-3-yl)imidazo[1,2-c]pyrimidin-5-yl)-1H-pyrazol-1-yl)propanenitrile] | 100 to 1000 nM | < 10 nM | 100 to 1000 nM | 10 to 100 nM
7 | CC(C)n1cc(-c2cc3nccn3c(-c3cnn(C4(CC#N)CN(CC(F)(F)F)C4)c3)n2)cn1 [Example 100, 2-(3-(4-(7-(1-Isopropyl-1-H-pyrazol-4-yl)imidazo[1,2-c]pyrimidin-5-yl)-1H-pyrazol-1-yl)-1-(2,2,2-trifluoroethyl)azetidin-3-yl)acetonitrile] | > 1000 nM | < 10 nM | 100 to 1000 nM | 10 to 100 nM
8 | Cc1ncc(-c2cc3nccn3c(-c3cnn(C4(CC#N)CN(CC(F)(F)F)C4)c3)n2)s1 [Example 102, 2-(3-(4-(7-(2-Methylthiazol-5-yl)imidazo[1,2-c]pyrimidin-5-yl)-1H-pyrazol-1-yl)-1-(2,2,2-trifluoroethyl)azetidin-3-yl)acetonitrile] | > 1000 nM | 10 to 100 nM | 100 to 1000 nM | 100 to 1000 nM
9 | Cn1cc(-c2cc3nccn3c(-c3cnn(C4(CC#N)CNC4)c3)n2)cn1 [Example 62, 2-(3-(4-(7-(1-Methyl-1H-pyrazol-4-yl)imidazo[1,2-c]pyrimidin-5-yl)-1H-pyrazol-1-yl)azetidin-3-yl)acetonitrile hydrochloride] | > 1000 nM | 100 to 1000 nM | > 1000 nM | > 1000 nM
10 | Cn1cc(-c2cc3nccn3c(-c3ccn(C4(CC#N)CNC4)c3)n2)cn1 [Example 127, 2-(3-(3-(7-(1-Methyl-1H-pyrazol-4-yl)imidazo[1,2-c]pyrimidin-5-yl)-1H-pyrrol-1-yl)azetidin-3-yl)acetonitrile trifluoroacetate] | > 1000 nM | 10 to 100 nM | 100 to 1000 nM | 100 to 1000 nM
11 | CN1CCC(c2ccc(-c3cc4nccn4c(-c4cnn(C(CC#N)C5CCCC5)c4)n3)cc2)CC1 (single isomer, unassigned) [Example 112, 3-cyclopentyl-3-(4-(7-(4-(1-methylpiperidin-4-yl)phenyl)imidazo[1,2-c]pyrimidin-5-yl)-1H-pyrazol-1-yl)propanenitrile] | 100 to 1000 nM | < 10 nM | 10 to 100 nM | 10 to 100 nM
